Like-named read-outs stand apart in the source and are kept apart here.
Legend:
[1] = system: GAS5 lncRNA; assay: γ-AApeptide OBOC combinatorial library screen with fluorescein tagged GAS5 oligonucleotide, hits validated in vitro; assay type: binding; conditions: fluorescein tagged GAS5 oligonucleotide probe, tRNA as control
Text: The interaction between UPF1 and GAS5 was disrupted using a γ-AApeptide based one-bead-one-compound (OBOC) combinatorial library (Wu H, Li Y, Bai G, Niu Y, Qiao Q, Tipton J D, Cao C, Cai J. gamma-AApeptide-based small-molecule ligands that inhibit Abeta aggregation. Chemical communications. 2014; 50(40):5206-8. doi: 10.1039/c3cc46685j. PubMed PMID: 24158240). The γ-AApeptide is a peptidomimetic with side chains for chemical diversity and are resistant to proteolytic cleavage. To screen the compound library, a probe that contained a fluorescein tagged oligonucleotide was synthesized. The probe spanned 30 nucleotides on either side of the UAA sequences on GAS5 (FIG. 13) The fluorescein was attached to the 5′end (beginning of oligonucleotide probe sequence). The nucleotide sequence within the GAS5 IncRNA that the oligonucleotide probe binds to can be about 100% identical to […] (SEQ ID NO: 4), which is nucleotides 541 to 651 of SEQ ID NO: 1. The underlined regions indicate the UAA that is the target regions. As such, the oligonucleotide probe was designed to flank both sides of these target regions.
The length of oligonucleotide was required to maintain stem loop structure to specifically bind to GAS5. Further, we modeled the oligonucleotide (RNAfold software) to evaluate its folding and verified absence of any unwanted secondary structures. The backbone was modified by 2′-MOE (2′-O-methoxyethylribose), which protects it from degradation and a fluoroscein tag was attached to the 5′end to aid in screening. The oligonucleotide probe was used to screen 160,000 molecules in the combinatorial library using tRNA as control (as tRNA has similar stem loop secondary structures). […] The compound having a structure according to Formula 3 was determined to have a chemical formula of C68H92N10O9S, a mass of about 1224.6769, and a molecular weight of 1225.6050. The compound having a structure according to Formula 14 was determined to have a chemical formula of C63H85N9O13S, a mass of about 1207.5988, and a molecular weight of 1208.4830. […]

[2] = system: HT22 cells; assay: Toxicity of side-chain derivatives to HT22 cells (preliminary data)
[3] = system: GAS5; assay: Binding of side-chain derivatives to GAS5 (preliminary data)
[4] = system: HT22 cells; conditions: mouse
[5] = after intranasal administration; cited from earlier work
[6] = system: GAS5; assay: GAS5 levels in NDM adipocytes after insulin, real-time qPCR; assay type: cell-based, human; conditions: about 10 nM, 24 hours
Text: Depletion of GAS5 decreases glucose uptake: Adipose tissue is the primary target for insulin-mediated glucose uptake. […] To maintain reproducibility over a larger number of experiments, adipose stem cells derived from normal or diabetic patients were purchased from Zenbio (BMI 20-24, Nondiabetic HbA1C 5.9 (hereafter referred as NDM); T2DM HbA1c 8.5 (hereafter referred as DM)). The adipose stem cells (ASC) were differentiated in vitro to mature adipocytes and used in experiments. GAS5 siRNA (10 nM, Ambion 332778, validated; scrambled siRNA as control) was transfected in NDM pre-adipocytes for 48 h, differentiated to mature NDM adipocytes for 8 days and knockdown confirmed by GAS5 SYBR Green qPCR. We determined the effect of GAS5 depletion on glucose uptake by NDM adipocytes. Cells were serum starved, 10 nM insulin was added to cells for 30 minutes and [^3H]-deoxy-2-D-Glucose uptake was measured. Results indicated a decrease in glucose uptake in GAS5 depleted NDM adipocytes ***p<0.001, highly significant using two-tailed students t-test.
About 10 nM insulin was added to NDM adipocytes for 24 hours. […] Separately, GAS5 was depleted in NDM adipocytes using GAS5 siRNA as described above to evaluate the insulin receptor mediated PI3K→AKT pathway. Whole cell lysates were evaluated by western blot analysis using antibodies against p-AKT and total AKT.

[7] = system: insulin receptor (IR); assay: Insulin receptor levels after intranasal insulin treatment; assay type: in vivo, mouse
Text: (§1) Diabetes increases the risk for impaired cognitive function and dementia by 47%. Patients with T2DM have cognitive deficits affecting verbal and nonverbal memory, attention, information processing speed, and executive function. To assess the cognitive function with respect to insulin resistance in vivo, aged diabetic mice BKS.Cg-+ Lepr^db/+ Lepr^db/OlaHsd (Older db/db mice from Harlan were used; 11 months—as this mouse model has lower life span) along with their normal age-matched controls. We measured the levels of GAS5 and insulin receptor (IR) in young (4 months) and db/db mice along with their age-matched control mice. The hippocampi of the mice were collected and SYBR Green qPCR was performed. […] Intranasal insulin delivery is a noninvasive method that bypasses the blood-brain barrier and delivers insulin to the brain and the spinal cord. Biologically effective concentrations of insulin can be achieved without systemic side effects.
(§2) After intranasal administration, insulin and peptide analogues begin to accumulate in the CSF within 30 minutes. Intranasal insulin directly improves learning and memory and has no effect on circulating blood glucose levels. Thus, the effects may reflect activation of neuronal insulin signaling pathways. […] Errors (incorrect arm choices) and escape latency were recorded for each daily trial (FIGS. 3B-3C).

[8] = system: aged normal and aged diabetic (db/db) mice; assay: Radial arm water maze (RAWM) after intranasal insulin in aged normal and db/db mice; assay type: in vivo, mouse; conditions: 1 unit/ml daily for 3 weeks, both normal aged and aged diabetic mice
Text: as §1, §2

[9] = system: neurons; assay: Immunohistochemistry after insulin treatment; assay type: in vivo, mouse
Procedure: FIGS. 4A-4B show panels fluorescent microscopic images of the results from Immuno histochemical analysis post insulin treatment in neron cells. The bar in the images of the panel of FIG. 4B is 20 μm.
After intranasal administration, insulin and peptide analogues begin to accumulate in the CSF within 30 minutes. Intranasal insulin directly improves learning and memory and has no effect on circulating blood glucose levels. Thus, the effects may reflect activation of neuronal insulin signaling pathways. The age-matched control and db/db mice cohorts were treated with intranasal insulin (1 unit/ml, daily for 3 weeks) and the radial arm water maze (RAWM) was used for cognitive assessment. Errors (incorrect arm choices) and escape latency were recorded for each daily trial (FIGS. 3B-3C).

## C[C@H]1CN(C(=O)CC2CC2)CC(=O)N[C@@H](CCC(=O)O)CN(C(=O)CCC2CCCCC2)CC(=O)N[C@@H](Cc2ccccc2)CN(CC(N)=O)C(=O)CCSCc2ccc(cc2)C(=O)N[C@@H](Cc2ccccc2)CN(C(=O)CCC(=O)O)CC(=O)N1 [Formula 14]
[1]
  ability to bind GAS5 (identified and validated from library screen): able to bind GAS5

## CC(C)C[C@H]1CN(CC(N)=O)C(=O)CCSCc2ccc(cc2)C(=O)N[C@@H](C)CN(C(=O)CCc2ccccc2)CC(=O)N[C@@H](CC(C)C)CN(C(=O)CC2CC2)CC(=O)N[C@@H](CCCCN)CN(C(=O)CCC2CCCCC2)CC(=O)N1 [YS-D-66]
[2]
  toxicity to HT22 cells: not toxic to HT22 cells
[3]
  binding to GAS5: bound efficiently to GAS5

## CC(C)C[C@H]1CN(C(=O)CCc2ccccc2)CC(=O)N[C@@H](Cc2ccccc2)CN(C(=O)CC2CC2)CC(=O)N[C@@H](Cc2ccccc2)CN(CC(N)=O)C(=O)CCSCc2ccc(cc2)C(=O)N[C@@H](CCCCN)CN(C(=O)CCc2ccccc2)CC(=O)N1 [YS-D-68]
[2]
  toxicity to HT22 cells: not toxic to HT22 cells
[3]
  binding to GAS5: bound efficiently to GAS5

## CC(C)C[C@H]1CN(C(=O)CCc2ccccc2)CC(=O)N[C@@H](Cc2ccccc2)CN(C(=O)CC2CC2)CC(=O)N[C@@H](Cc2ccccc2)CN(CC(N)=O)C(=O)CCSCc2ccc(cc2)C(=O)N[C@@H](Cc2ccccc2)CN(C(=O)CCCN)CC(=O)N1 [YS-D-69]
[2]
  toxicity to HT22 cells: not toxic to HT22 cells
[3]
  binding to GAS5: bound efficiently to GAS5

## NCCCC[C@H]1CN(C(=O)CCCN)CC(=O)N[C@@H](CCC(=O)O)CN(CC(N)=O)C(=O)CCSCc2ccc(cc2)C(=O)N[C@@H](CCCCN)CN(C(=O)CCC(=O)O)CC(=O)N[C@@H](Cc2ccccc2)CN(C(=O)CCc2ccccc2)CC(=O)N1 [YS-D-70]
[3]
  binding to GAS5: bound efficiently to GAS5
[4]
  toxicity to HT22 cells: not toxic to HT22 cells

## insulin
[5]
  time to begin to accumulate in the CSF: ≤ 30 min
[6]
  GAS5 levels in NDM adipocytes: increase in GAS5 levels
[7]
  levels of IR: did not increase
[8]
  cognitive performance in RAWM (errors, escape latency): improved the cognitive performance
[9]
  neurogenesis: increased
  neuronal proliferation: increased

Source: patent publication US11214835B1, “Methods and compositions for diagnosis and management of neurodegerative diseases” (UNIVERSITY OF SOUTH FLORIDA, priority 2017, dated 2022)
